# Key:
# [1] = target: T1, FLK-1 receptor (Mus musculus, UniProt P35918); experiment: ELISA assay measuring the kinase activity of the FLK-1 receptor in cells engineered to express FLK-1; format: cell-based; conditions: NIH3T3 C7#3 FLK-1 expressing cells, VEGF stimulation, phosphotyrosine ELISA
# T1 construct: expressed in transfected cells; host or cells: NIH3T3 C7#3
# Procedure: An ELISA assay was conducted to measure the kinase activity of the FLK-1 receptor and more specifically, the inhibition or activation of TK activity on the FLK-1 receptor. Specifically, the following assay was conducted to measure kinase activity of the FLK-1 receptor in cells genetically engineered to express FLK-1.
# (11) NIH3T3 C7#3 Cells (FLK-1 expressing cells);
# The following protocol was used for conducting the assay:
# 1. Coat Corning 96-well elisa plates with 1.0 μg per well Cappel Anti-rabbit IgG antibody in 0.1 M Na2CO3 pH 9.6. Bring final volume to 150 μL per well. Coat plates overnight at 4° C. Plates can be kept up to two weeks when stored at 4° C.
# 2. Grow cells in Growth media (DMEM, supplemental with 2.0 mM L-Glutamine, 10% FBS) in suitable culture dishes until confluent at 37° C., 5% CO2.
# 3. Harvest cells by trypsinization and seed in Corning 25850 polystyrene 96-well roundbottom cell plates, 25.000 cells/well in 200 μL of growth media.
# 4. Grow cells at least one day at 37° C., 5% CO2.
# 5. Wash cells-with D-PBS 1×.
# 6. Add 200 μL/well of starvation media (DMEM, 2.0 mM 1-Glutamine, 0.1% FBS). Incubate overnight at 37° C., 5% CO2.
# 7. Dilute Compounds 1:20 in polypropylene 96 well plates using starvation media. Dilute dimethylsulfoxide 1:20 for use in control wells.
# 8. Remove starvation media from 96 well cell culture plates and add 162 μL of fresh starvation media to each well.
# 9. Add 18 μL of 1:20 diluted Compound dilution (from step 7) to each well plus the 1:20 dimethylsulfoxide dilution to the control wells (+/− VEGF), for a final dilution of 1:200 after cell stimulation. Final dimethylsulfoxide is 0.5%. Incubate the plate at 37° C., 5% CO2 for two hours.
# 10. Remove unbound antibody from ELISA plates by inverting plate to remove liquid. Wash 3 times with TBSW+0.5% ethanolamine, pH 7.0. Pat the plate on a paper towel to remove excess liquid and bubbles.
# 11. Block plates with TBSW+0.5% Ethanolamine, pH 7.0, 150 μL per well. Incubate plate thirty minutes while shaking on a microliter plate shaker.
# 12. Wash plate 3 times as described in step 10.
# 13. […] Bring final volume to 150 μL/well with TBSW+0.5% ethanolamine pH 7.0. Incubate plate for thirty minutes while shaking.
# 14. Add 180 μL starvation medium to the cells and stimulate cells with 20 μL/well 10.0 mM sodium ortho vanadate and 500 ng/mL VEGF (resulting in a final concentration of 1.0 mM sodium ortho vanadate and 50 ng/mL VEGF per well) for eight minutes at 37° C., 5% CO2. Negative control wells receive only starvation medium.
# 15. After eight minutes, media should be removed from the cells and washed one time with 200 μL/well PBS.
# 16. Lyse cells in 150 μL/well HNTG while shaking at room temperature for five minutes. HNTG formulation includes sodium ortho vanadate, sodium pyro phosphate and EDTA.
# 17. Wash ELISA plate three times as described in step 10.
# 18. Transfer cell lysates from the cell plate to ELISA plate and incubate while shaking for two hours. To transfer cell lysate pipette up and down while scrapping the wells.
# 19. Wash plate three times as described in step 10.
# 20. Incubate ELISA plate with 0.02 μg/well UB40 in TBSW+05% ethanolamine. Bring final volume to 150 μL/well. Incubate while shaking for 30 minutes.
# 21. Wash plate three times as described in step 10.
# 22. Incubate ELISA plate with 1:10,000 diluted EIA grade goat anti-mouse IgG conjugated horseradish peroxidase in TBSW+0.5% ethanolamine, pH 7.0. Bring final volume to 150 μL/well. Incubate while shaking for thirty minutes.
# 23. Wash plate as described in step 10.
# 24. Add 100 μL of ABTS/H2O2 solution to well. Incubate ten minutes while shaking.
# 25. Add 100 μL of 0.2 M HCl for 0.1 M HCl final to stop the color development reaction. Shake 1 minute at room temperature. Remove bubbles with slow stream of air and read the ELISA plate in an ELISA plate reader at 410 nm.
# (§1) The IC50 values were measured for several of the compounds of the invention.
# [2] = tested on: EGF-induced BrdU incorporation; experiment: EGF-induced BrdU incorporation assay; format: cell-based; conditions: read-out: EGF-Induced BrdU Incorp. IC50
# Procedure: (§2) PDGF-, FGF-, and EGF-Induced BRDU Incorporation Assay
# (§3) 1. Cells were seeded at 8000 cells/well in DMEM, 10% CS, 2 mM Gln in a 96 well plate. Cells were incubated overnight at 37° C. in 5% CO2.
# (§4) 2. After 24 hours, the cells were washed with PBS, and then were serum starved in serum free medium (0% CS DMEM with 0.1% BSA) for 24 hours.
# (§5) 3. On day 3, ligand (PDGF=3.8 nM, prepared in DMEM with 0.1% BSA) and test compounds were added to the cells simultaneously. The negative control wells received serum free DMEM with 0.1% BSA only; the positive control cells received the ligand (PDGF) but no test compound. Test compounds were prepared in serum free DMEM with ligand in a 96 well plate, and serially diluted for 7 test concentrations.
# (§6) 4. After 20 hours of ligand activation, diluted BrdU labeling reagent (1:100 in DMEM, 0.1% BSA) was added and the cells were incubated with BrdU (final concentration=10 μM) for 1.5 hours.
# (§7) 5. After incubation with labeling reagent, the medium was removed by decanting and tapping the inverted plate on a paper towel. FixDenat solution was added (50 μL/well) and the plates were incubated at room temperature for 45 minutes on a plate shaker.
# (§8) 6. The FixDenat solution was thoroughly removed by decanting and tapping the inverted plate on a paper towel. Milk was added (5% dehydrated milk in PBS, 200 μL/well) as a blocking solution and the plate was incubated for 30 minutes at room temperature on a plate shaker.
# (§9) 7. The blocking solution was removed by decanting and the wells were washed once with PBS. Anti-BrdU-POD solution (1:100 dilution in PBS, 1% BSA) was added (100 μL/well), and the plate was incubated for 90 minutes at room temperature on a plate shaker.
# (§10) 8. The antibody conjugate was thoroughly removed by decanting and rinsing the wells 5 times with PBS, and the space was dried by inverting and tapping on a paper towel.
# (§11) 9. TMB substrate solution was added (100 μL/well) and incubated for 20 minutes at room temperature on a plate shaker until color development was sufficient for photometric detection.
# (§12) 10. The absorbance of the samples were measured at 410 nm (in “dual wavelength” mode with a filter reading at 490 nm, as a reference wavelength) on a Dynatech ELISA plate reader.
# (§13) The IC50 values were measured for several of the compounds of the invention. These values are depicted in Table 10.
# [3] = tested on: 3T3 cell line genetically engineered to express human PDGF-R; experiment: PDGF-induced BrdU incorporation assay; format: cell-based; conditions: NIH3T3; 3T3 cells expressing human PDGF-R, PDGF 3.8 nM; read-out: PDGF-Induced BrdU Incorp. IC50
# Procedure: (1) PDGF: human PDGF B/B; 1276-956, Boehringer Mannheim, Germany
# (8) 3T3 cell line genetically engineered to express human PDGF-R.
# as §3, §4, §5, §6, §7, §8, §9, §10, §11, §12, §13
# [4] = tested on: FGF-induced BrdU incorporation; experiment: FGF-induced BrdU incorporation assay; format: cell-based; conditions: read-out: FGF-Induced BrdU Incorp. IC50
# Procedure: as §2, §3, §4, §5, §6, §7, §8, §9, §10, §11, §12, §13
# [5] = target: T2, EGFR protein (Homo sapiens, UniProt P00533); experiment: ELISA assay measuring the kinase activity of the EGF receptor (EGFR captured from A431 cell lysate); format: biochemical
# T2 construct: A431 cell lysate; endogenous in cells; host or cells: A431
# Procedure: The following protocol describes the reagents and procedures used to analyze protein tyrosine kinase activity on the EGFR protein.
# All of the following steps are conducted at room temperature unless it is specifically indicated. All ELISA plate washing is by rinsing 4× with TBST.
# 1. Coat Corning 96 well ELISA plates with 0.5 μg/well of SUMO1 in a volume of 100 μL PBS. Store overnight at 4° C.
# 2. Remove unbound SUMO1 by inverting plate to remove liquid. Wash plates with distilled water. Pat plate on a paper towel to remove excess liquid and bubbles
# 3. Add 150 μL of Blocking Buffer to each well. Incubate while shaking on a microliter plate shaker at room temperature for 30 min.
# 4. Wash 3× with deionized water, then once with TBST. Pat plate on a paper towel to remove excess liquid and bubbles.
# 5. Dilute lysate in PBS (7 μg of lysate/100 μL of PBS).
# 6. Add 100 μL of diluted lysate to each well. Shake at room temperature for 60 min.
# 7. Wash as described in step 4.
# 8. Add 120 μL TBS to ELISA plate containing captured EGFR.
# 9. Dilute drugs/extracts 1:10 (unless specified otherwise) in TBS in 96-well polypropylene plates.
# 10. Add 13.5 μL diluted drugs/extracts to ELISA plate.
# 11. Incubate for 30 minutes while shaking at room temperture.
# 12. […] Incubate while shaking on a micro-liter plate shaker at room temperature for 5 min.
# 13. Stop Kinase reaction with the addition of 16.5 μL of 200 mM EDTA pH 8.0 to all wells.
# 14. Wash 4× with deionized water and twice with TBST.
# 15. Add 100 μL per well of anti-phosphotyrosine (1:3000 dilution in TBST). Incubate while shaking on a micro-liter plate shaker 30-45 minutes at room temperature while shaking.
# 16. Wash as described in step 4.
# 17. Add 100 μL per well of biosource Goat anti-rabbit IgG peroxidase conjugate (1:2000 dilution in TBST). Incubate 30 min. at room temerature while shaking.
# 18. Wash as described in step 4.
# 19. Add 100 μL of ABTS/H2O2 solution to each well.
# 20. Incubate 5 to 15 minutes while shaking. Remove any bubbles.
# 21. If necessary stop reaction with the addition of 10 μL of 0.2 M HCl/well.
# 22. Read assay on Dynatech MR7000 ELISA Plate Reader.
# as §1
# [6] = target: Myc-GyrB-FGFR fusion protein (Homo sapiens, UniProt P11362); experiment: ELISA assay measuring the kinase activity of the FGF receptor (Myc-GyrB-FGFR from COS/FGFR cell lysate); format: biochemical; conditions: 7 μM ATP
# Sequence of Myc-GyrB-FGFR fusion protein (P11362 398-822): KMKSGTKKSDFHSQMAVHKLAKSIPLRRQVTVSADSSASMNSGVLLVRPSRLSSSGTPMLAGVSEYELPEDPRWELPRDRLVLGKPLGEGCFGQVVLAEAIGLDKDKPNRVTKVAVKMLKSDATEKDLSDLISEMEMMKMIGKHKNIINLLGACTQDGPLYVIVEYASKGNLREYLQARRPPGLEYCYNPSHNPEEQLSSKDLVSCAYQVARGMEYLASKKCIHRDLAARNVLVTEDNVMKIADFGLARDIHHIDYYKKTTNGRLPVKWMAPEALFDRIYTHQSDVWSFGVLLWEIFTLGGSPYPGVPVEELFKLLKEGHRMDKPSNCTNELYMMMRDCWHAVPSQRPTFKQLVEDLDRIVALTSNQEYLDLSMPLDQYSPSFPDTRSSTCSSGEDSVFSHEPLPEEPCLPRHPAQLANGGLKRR
# Procedure: The following protocol describes the reagents and procedures used to analyze protein-tyrosine kinase activity of the Myc-GyrB-FGFR fusion protein.
# Coat Corning 96 well ELISA plates with 1.0 μg/well of Rabbit αGyrB antibody in PBS for a total well volume of 100 μL. Store overnight at 4° C.
# Remove unbound Rabbit antibody by inverting plate to remove liquid. Pat plate on a paper towel to remove excess liquid and bubbles
# Add 100 μL of Blocking Buffer (TBB) to each well. Incubate while shaking on a microliter plate shaker at room temperature for 30 min.
# Wash 4× with TBST. Pat plate on a paper towel to remove excess liquid and bubbles.
# Add 15 μg COS/FGFR cell lysate Myc-GyrB-FGFR sources per well in HNTG for a final volume of 100 μL per well. Incubate while shaking on a micro-liter plate shaker at room temperature for 2 hours.
# Wash 4× with TBST as described in step 4.
# Add 80 μL of 1× kinase buffer per well.
# Dilute compunds/extracts 1:10 (or as stated otherwise) in 1× kinase buffer +1% DMSO in a polypropylene 96 well plate.
# At this point diluted Compounds/Extracts are added to the ELISA plate. […]
# T1 sequence (P35918 20-1345): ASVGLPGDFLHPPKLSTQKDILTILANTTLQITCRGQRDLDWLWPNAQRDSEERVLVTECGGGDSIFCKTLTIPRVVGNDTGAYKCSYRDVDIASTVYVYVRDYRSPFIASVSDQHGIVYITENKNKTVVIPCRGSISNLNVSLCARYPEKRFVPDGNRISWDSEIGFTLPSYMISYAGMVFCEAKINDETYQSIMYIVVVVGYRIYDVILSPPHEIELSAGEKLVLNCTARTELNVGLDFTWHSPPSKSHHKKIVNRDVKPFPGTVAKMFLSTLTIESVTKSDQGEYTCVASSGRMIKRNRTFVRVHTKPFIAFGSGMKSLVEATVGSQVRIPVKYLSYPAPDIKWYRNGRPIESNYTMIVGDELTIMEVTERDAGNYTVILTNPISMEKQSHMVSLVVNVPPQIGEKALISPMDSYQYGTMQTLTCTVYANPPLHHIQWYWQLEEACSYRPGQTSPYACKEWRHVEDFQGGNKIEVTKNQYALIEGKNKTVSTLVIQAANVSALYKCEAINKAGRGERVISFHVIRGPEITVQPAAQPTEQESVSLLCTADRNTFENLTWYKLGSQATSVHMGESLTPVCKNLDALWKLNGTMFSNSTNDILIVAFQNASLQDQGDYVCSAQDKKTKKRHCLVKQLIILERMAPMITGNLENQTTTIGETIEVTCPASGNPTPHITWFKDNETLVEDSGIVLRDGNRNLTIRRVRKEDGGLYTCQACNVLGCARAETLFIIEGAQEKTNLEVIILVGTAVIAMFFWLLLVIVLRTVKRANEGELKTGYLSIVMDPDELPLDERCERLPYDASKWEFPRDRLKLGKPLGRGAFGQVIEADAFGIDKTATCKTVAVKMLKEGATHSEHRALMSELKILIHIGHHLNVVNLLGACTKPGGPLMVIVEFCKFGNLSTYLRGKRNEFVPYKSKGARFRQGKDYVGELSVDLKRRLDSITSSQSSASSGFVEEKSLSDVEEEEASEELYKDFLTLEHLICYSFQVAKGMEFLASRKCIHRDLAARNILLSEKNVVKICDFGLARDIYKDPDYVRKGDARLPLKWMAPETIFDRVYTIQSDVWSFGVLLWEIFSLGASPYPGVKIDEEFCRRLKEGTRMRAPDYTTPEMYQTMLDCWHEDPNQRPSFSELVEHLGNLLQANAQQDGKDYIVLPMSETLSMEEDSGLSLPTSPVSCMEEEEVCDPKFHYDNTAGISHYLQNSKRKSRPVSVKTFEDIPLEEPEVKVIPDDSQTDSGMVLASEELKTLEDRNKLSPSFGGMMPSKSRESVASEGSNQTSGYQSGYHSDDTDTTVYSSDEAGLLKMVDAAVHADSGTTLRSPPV
# T2 sequence (P00533 25-1210): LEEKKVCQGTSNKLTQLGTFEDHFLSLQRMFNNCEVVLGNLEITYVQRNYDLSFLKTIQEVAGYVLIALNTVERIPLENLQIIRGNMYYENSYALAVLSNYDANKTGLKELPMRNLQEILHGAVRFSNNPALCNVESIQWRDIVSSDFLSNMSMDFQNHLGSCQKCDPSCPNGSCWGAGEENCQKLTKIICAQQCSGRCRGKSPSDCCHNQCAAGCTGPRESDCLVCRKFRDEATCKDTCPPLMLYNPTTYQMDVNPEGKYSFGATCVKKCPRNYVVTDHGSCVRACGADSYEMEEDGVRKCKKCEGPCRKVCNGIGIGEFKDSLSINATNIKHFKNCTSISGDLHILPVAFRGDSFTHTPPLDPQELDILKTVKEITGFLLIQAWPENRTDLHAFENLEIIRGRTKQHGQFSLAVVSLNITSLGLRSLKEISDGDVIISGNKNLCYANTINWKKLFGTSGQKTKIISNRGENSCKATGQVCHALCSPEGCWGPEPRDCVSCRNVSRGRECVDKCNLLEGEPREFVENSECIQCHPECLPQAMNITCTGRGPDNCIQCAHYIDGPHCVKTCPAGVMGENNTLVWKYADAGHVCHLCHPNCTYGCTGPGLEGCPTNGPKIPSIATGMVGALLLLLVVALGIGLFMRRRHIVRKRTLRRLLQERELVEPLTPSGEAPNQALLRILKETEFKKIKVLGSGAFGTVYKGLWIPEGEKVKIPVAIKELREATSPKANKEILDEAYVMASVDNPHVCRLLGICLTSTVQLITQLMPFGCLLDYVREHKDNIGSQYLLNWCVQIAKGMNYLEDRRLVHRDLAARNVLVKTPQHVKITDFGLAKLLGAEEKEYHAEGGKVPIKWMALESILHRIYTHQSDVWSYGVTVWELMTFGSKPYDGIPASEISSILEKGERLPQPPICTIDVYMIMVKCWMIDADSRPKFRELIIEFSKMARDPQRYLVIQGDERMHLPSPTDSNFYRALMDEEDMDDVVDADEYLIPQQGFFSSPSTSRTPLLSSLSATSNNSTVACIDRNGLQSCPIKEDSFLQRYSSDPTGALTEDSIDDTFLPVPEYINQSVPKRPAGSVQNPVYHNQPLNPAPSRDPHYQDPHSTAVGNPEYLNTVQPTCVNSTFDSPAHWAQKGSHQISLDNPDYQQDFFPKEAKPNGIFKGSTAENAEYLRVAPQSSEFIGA
structure (smiles),measurement,setting,value
"O=C(O)CCc1c(/C=C2\C(=O)Nc3ncccc32)[nH]c2c1CCCC2 [IN-014, 3-[2-(2-Oxo-1,2-dihydro-pyrrolo[2,3-b]pyridin-3-ylidenemethyl)-4,5,6,7-tetrahydro-1H-indol-3-yl]-propionic acid]",IC50,[1],0.14 µM
"O=C(O)CCc1c(C=C2C(=O)Nc3cc(-c4ccccc4)ccc32)[nH]c2c1CCCC2 [IN-017, 3-[2-(2-Oxo-6-phenyl-1,2-dihydro-indol-3-ylidenemethyl)-4,5,6,7-tetrahydro-1H-indol-3-yl]-propionic acid]",IC50,[1],< 0.78 µM
"COc1ccccc1-c1ccc2c(c1)NC(=O)C2=Cc1[nH]c2c(c1CCC(=O)O)CCCC2 [IN-018, 3-{2-[6-(2-Methoxy-phenyl)-2-oxo-1,2-dihydro-indol-3-ylidenemethyl]-4,5,6,7-tetrahydro-1H-indol-3-yl}-propionic acid]",IC50,[1],2.7 µM
"CC(C)NS(=O)(=O)c1ccc2c(c1)C(=Cc1[nH]c3c(c1CCC(=O)O)CCCC3)C(=O)N2 [IN-019, 3-[2-(5-Isopropylaminosulfonyl-2-oxo-1,2-dihydro-indol-3-ylidenemethyl)-4,5,6 7-tetrahydro-1H-indol-3-yl]-propionic acid]",IC50,[1],< 0.78 µM
"Cc1ccc2c(c1)C(=Cc1[nH]cc(C)c1CCC(=O)O)C(=O)N2 [IN-032, 3-[2-(5-Methyl-2-oxo-1,2-dihydro-indol-3-ylidenemethyl)-4-methyl-1H-pyrrol-3-yl]-propionic acid]",IC50,[2],> 50 µM
same,IC50,[3],11 µM
same,IC50,[4],30 µM
"COc1cccc(-c2ccc3c(c2)NC(=O)C3=Cc2[nH]c3c(c2CCC(=O)O)CCCC3)c1 [IN-015, 3-{2-[6-(3-Methoxy-phenyl)-2-oxo-1,2-dihydro-indol-3-ylidenemethyl]-4,5,6,7-tetrahydro-1H-indol-3-yl}-propionic acid]",IC50,[1],< 0.78 µM
"O=C(O)CCc1c(C=C2C(=O)Nc3cc(Cl)ccc32)[nH]c2c1CCCC2 [IN-006, 3-[2-(6-Chloro-2-oxo-1,2-dihydro-indol-3-ylidenemethyl)-4,5,6,7-tetrahydro-1H-indol-3-yl]-propionic acid]",IC50,[2],63.6 µM
same,IC50,[1],0.031 µM
same,IC50,[3],3.7 µM
same,IC50,[4],30.2 µM
"COc1ccc2c(c1)C(=Cc1[nH]cc(C)c1CCC(=O)O)C(=O)N2 [IN-033, 3-[2-(5-Methoxy-2-oxo-1,2-dihydro-indol-3-ylidenemethyl)-4-methyl-1H-pyrrol-3-yl]-propionic acid]",IC50,[2],> 50 µM
same,IC50,[3],> 50 µM
same,IC50,[5],> 100 µM
same,IC50,[4],35 µM
"O=C(O)CCc1ccccc1/C=C1/C(=O)Nc2ccccc21 [IN-025, 3-[2-(2-Oxo-1,2-dihydro-indol-3-ylidenemethyl)-phenyl]-propionic acid]",IC50,[6],30.2 µM
